Assay results taken from US20220273659A1, “HETEROCYCLIC COMPOUNDS AS KINASE INHIBITORS” (NUVATION BIO INC., priority 2019, published 2022).

How the values were obtained:
CDK6 = target: T1, CDK6 (Homo sapiens, UniProt Q00534); experiment: In vitro kinase inhibition IC50, luminescence (ADP Glo), retinoblastoma substrate; format: biochemical; conditions: read-out: CDK6/D1 IC50
T1 construct: purchased Invitrogen PR8422B
In short: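 IC50 derived by four-parameter logistic fit of percent inhibition, read as ADP-Glo luminescence. Reactions: 5 nM CDK6, 1 μM retinoblastoma, 25 μM ATP, test compound 0.1–200 nM final, 2 h at room temperature.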

CDK4 = target: T2, CDK4 (Homo sapiens, UniProt P11802); experiment: as above; format: biochemical; conditions: read-out: CDK4/D1 IC50
T2 construct: purchased Invitrogen PR8064A
In short: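 Inhibition of CDK4 was quantified by ADP Glo luminescence with retinoblastoma as substrate. Reactions held 5 nM kinase, 1 μM retinoblastoma and 25 μM ATP and ran 2H at room temperature. A Synergy Neo reader took signals 15 min and 45 min after detection reagent, and percent inhibition was fitted to a four-parameter logistic model in XLfit to obtain IC50.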

[1] = test system: DU4475 breast carcinoma cells; experiment: Cancer cell proliferation assay, single agent (cell viability); format: cell-based; conditions: Homo sapiens, DU-4475; Table 4; Rb negative; treatment 144 Hr with medium change at 72 Hr; Cell Titer-Glo or resazurin
In short: (§1)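 Viability read by resazurin or CellTiter-Glo after 24 h treatment (BT-549) or 144 h with a 72 h medium change (MCF-7, DU4475). Compounds tested at 7–9 concentrations, e.g. 1.1 nM–10 μM, added the day after seeding; IC50 by nonlinear sigmoidal regression.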

[2] = test system: MCF-7 breast adenocarcinoma cells; experiment: as above; format: cell-based; conditions: Homo sapiens, MCF7, Table 4; Rb positive; treatment 144 Hr with medium change at 72 Hr; Cell Titer-Glo or resazurin
In short: as §1

PI3Kδ kinase = target: T3, PI3Kδ kinase (Homo sapiens, UniProt O00329); experiment: PI3Kδ kinase assay (ADP-Glo, Reaction Biology); format: biochemical
T3 construct: purchased Reaction Biology Corporation (assay service)
In short: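 Kinase in Tris-HCl 40 mM pH 7.5, MgCl2 20 mM, orthovanadate 3 mM, DTT 2 mM, 0.05% CHAPS, 1% DMSO, preincubated 10 min at room temperature with compound (about 0.5 nM–100 μM). ATP started a 30-min reaction at 30 °C. ADP-Glo luminescence converted to μM ADP via standard curve; IC50 from nonlinear regression.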

FMS kinase = target: T4, FMS kinase (Homo sapiens, UniProt P07333); experiment: LanthaScreen Eu Kinase Binding Assay (ATP, fluorescent-PolyGT substrate); format: biochemical
T4 construct: purchased Invitrogen (Life Technologies)
In short: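 TR-FRET read (ex 340, em 495 and 520 nm) after EDTA/Tb-labelled antibody stop; IC50 by four-parameter logistic fit of percent inhibition. Reaction: 1.25 nM FMS, 10 min compound preincubation (3-fold series), then 1 h at room temperature with 10 μM ATP and 200 nM fluorescent PolyGT.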

T1 sequence (Q00534 whole entry): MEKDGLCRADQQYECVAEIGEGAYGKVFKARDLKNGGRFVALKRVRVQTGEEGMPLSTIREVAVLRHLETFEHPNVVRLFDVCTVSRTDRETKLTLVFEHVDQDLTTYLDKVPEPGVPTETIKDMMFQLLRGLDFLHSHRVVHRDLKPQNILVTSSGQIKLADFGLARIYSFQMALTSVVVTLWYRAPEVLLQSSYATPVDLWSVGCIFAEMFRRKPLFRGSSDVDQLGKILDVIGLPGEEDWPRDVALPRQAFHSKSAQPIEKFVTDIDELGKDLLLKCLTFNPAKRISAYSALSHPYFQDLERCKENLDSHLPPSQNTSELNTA
T1 sequence (P24385 whole entry partner): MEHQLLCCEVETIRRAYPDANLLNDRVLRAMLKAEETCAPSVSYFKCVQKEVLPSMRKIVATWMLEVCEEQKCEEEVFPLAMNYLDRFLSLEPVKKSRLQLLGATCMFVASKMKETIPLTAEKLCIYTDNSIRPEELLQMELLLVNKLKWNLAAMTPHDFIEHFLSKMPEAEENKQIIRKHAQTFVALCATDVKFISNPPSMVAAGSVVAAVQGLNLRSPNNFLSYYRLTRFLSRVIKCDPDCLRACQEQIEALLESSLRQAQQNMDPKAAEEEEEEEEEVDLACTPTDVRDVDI
T3 sequence (O00329 whole entry): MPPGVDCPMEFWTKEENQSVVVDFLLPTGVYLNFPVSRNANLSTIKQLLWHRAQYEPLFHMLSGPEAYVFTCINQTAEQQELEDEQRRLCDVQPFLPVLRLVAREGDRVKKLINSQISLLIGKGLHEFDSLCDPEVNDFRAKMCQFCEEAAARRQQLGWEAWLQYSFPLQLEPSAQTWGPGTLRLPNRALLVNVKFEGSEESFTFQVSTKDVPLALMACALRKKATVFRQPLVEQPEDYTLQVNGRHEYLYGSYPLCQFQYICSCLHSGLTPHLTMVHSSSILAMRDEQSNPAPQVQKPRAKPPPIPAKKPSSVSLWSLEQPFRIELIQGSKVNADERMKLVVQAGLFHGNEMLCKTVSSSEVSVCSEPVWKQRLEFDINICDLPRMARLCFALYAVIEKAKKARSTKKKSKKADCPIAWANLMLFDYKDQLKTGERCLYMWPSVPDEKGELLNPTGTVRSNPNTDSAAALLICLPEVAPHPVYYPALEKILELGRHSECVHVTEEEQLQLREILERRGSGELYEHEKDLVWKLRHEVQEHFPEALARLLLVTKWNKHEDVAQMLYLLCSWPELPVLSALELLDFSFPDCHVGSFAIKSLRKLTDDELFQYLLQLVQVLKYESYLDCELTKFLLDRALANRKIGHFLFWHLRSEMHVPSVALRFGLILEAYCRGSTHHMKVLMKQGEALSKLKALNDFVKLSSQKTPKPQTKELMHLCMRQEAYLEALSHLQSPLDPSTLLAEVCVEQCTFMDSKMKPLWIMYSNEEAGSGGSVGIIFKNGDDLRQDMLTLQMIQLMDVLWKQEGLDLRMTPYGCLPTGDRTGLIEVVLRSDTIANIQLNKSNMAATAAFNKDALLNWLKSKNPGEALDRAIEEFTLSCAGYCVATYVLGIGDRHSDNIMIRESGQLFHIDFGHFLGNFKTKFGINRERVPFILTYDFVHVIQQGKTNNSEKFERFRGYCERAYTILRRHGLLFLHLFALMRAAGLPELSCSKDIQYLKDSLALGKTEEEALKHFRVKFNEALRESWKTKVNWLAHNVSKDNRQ
T3 sequence (P27986 whole entry partner): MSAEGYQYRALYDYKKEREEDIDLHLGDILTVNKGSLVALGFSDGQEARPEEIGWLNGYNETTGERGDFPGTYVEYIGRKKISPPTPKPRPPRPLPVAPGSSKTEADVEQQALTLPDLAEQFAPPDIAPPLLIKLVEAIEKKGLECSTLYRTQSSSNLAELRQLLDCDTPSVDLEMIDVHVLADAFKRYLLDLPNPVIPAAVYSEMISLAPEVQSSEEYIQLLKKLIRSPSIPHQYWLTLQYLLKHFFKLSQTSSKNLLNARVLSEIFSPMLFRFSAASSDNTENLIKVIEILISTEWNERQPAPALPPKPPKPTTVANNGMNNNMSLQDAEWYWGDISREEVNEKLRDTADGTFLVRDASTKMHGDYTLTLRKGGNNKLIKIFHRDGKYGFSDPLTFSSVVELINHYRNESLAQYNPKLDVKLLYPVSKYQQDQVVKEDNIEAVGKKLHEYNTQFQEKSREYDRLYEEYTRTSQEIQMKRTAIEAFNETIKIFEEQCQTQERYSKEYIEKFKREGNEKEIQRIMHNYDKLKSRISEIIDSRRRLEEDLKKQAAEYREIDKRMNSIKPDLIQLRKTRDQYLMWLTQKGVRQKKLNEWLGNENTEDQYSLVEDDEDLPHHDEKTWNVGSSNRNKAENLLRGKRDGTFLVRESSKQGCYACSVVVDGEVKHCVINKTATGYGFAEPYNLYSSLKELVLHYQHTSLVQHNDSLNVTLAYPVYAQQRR
T2 sequence (P11802 whole entry): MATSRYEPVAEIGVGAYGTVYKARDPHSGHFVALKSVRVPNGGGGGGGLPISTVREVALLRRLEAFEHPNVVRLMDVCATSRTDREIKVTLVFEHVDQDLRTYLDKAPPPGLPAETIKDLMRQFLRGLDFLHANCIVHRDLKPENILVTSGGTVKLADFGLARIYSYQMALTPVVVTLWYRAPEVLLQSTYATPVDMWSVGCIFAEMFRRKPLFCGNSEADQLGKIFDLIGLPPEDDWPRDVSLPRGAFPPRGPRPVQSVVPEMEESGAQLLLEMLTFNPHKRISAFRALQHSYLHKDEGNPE
T2 sequence (P24385 whole entry partner): as the sequence (P24385 whole entry partner) above
T4 sequence (P07333 20-972): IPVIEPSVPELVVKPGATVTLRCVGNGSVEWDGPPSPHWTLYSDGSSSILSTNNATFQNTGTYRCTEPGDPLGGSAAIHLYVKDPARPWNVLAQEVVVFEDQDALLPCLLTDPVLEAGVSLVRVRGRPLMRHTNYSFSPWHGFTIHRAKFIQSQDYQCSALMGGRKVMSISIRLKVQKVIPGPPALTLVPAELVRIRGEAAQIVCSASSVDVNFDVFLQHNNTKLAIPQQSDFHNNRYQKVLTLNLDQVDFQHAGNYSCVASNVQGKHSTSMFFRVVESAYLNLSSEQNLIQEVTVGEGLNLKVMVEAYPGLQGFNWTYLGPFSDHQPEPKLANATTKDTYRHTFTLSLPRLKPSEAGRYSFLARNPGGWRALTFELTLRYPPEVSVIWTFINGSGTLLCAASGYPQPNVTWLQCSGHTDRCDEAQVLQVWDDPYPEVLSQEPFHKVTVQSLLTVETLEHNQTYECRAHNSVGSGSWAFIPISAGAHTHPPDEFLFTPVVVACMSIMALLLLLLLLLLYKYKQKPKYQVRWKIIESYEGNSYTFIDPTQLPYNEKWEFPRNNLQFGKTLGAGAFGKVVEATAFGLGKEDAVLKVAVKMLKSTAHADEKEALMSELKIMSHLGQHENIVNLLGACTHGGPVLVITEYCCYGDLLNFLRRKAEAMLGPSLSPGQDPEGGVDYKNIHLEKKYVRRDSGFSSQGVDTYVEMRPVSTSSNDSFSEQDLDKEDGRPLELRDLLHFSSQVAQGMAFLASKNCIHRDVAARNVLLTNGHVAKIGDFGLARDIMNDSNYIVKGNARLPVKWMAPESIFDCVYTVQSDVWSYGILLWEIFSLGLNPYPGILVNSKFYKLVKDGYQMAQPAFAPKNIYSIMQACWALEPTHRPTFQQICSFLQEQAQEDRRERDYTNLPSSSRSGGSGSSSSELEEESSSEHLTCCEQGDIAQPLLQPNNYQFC

Row | IC50 (CDK6) [nM] | IC50 (CDK4) [nM] | IC50 [1] [nM] | IC50 [2] [nM] | IC50 (PI3Kδ kinase) [nM] | IC50 (FMS kinase) [nM] | Structure (SMILES)
1 | 16 | 6.5 | 1260 | 480 | 1690 | 0.6 | N#Cc1cc2cnc(Nc3ccc(N4CCN5CCCC5C4)c(F)c3)nc2n(C2CCCC2)c1=O (stereo not drawn) [Compound No. 55, 8-cyclopentyl-2-((3-fluoro-4-(hexahydropyrrolo[1,2-a]pyrazin-2(1H)-yl)phenyl)amino)-7-oxo-7,8-dihydropyrido[2,3-d]pyrimidine-6-carbonitrile]
2 | 22 | 6 | 1320 | 540 | 1310 | 1 | N#Cc1cc2cnc(Nc3ccc(N4CCN5CCCCC5C4)c(F)c3)nc2n(C2CCCC2)c1=O (stereo not drawn) [Compound No. 59, 8-cyclopentyl-2-((3-fluoro-4-(octahydro-2H-pyrido[1,2-a]pyrazin-2-yl)phenyl)amino)-7-oxo-7,8-dihydropyrido[2,3-d]pyrimidine-6-carbonitrile]
3 | 1 | 1 | 1640 | 90 | 310 | < 1 | CN1CCN(c2ccc(Nc3ncc4cc(C#N)c(=O)n(C5CCCC5)c4n3)cc2CO)CC1 [Compound No. 10, 8-cyclopentyl-2-((3-(hydroxymethyl)-4-(4-methylpiperazin-1-yl)phenyl)amino)-7-oxo-7,8-dihydropyrido[2,3-d]pyrimidine-6-carbonitrile]
4 | 2.5 | 6.5 | 2220 | 353 | 64 | 5.8 | N#Cc1cc2cnc(Nc3ccc(C4CCNCC4)cc3)nc2n(C2CCCC2)c1=O [Compound No. 37, 8-cyclopentyl-7-oxo-2-((4-(piperidin-4-yl)phenyl)amino)-7,8-dihydropyrido[2,3-d]pyrimidine-6-carbonitrile]
5 | 55 | 52 | 5080 | 6900 | 34 | 18 | N#Cc1cc2cnc(Nc3ccn(C4CCNCC4)c(=O)c3)nc2n(C2CCCC2)c1=O [Compound No. 60, 8-cyclopentyl-7-oxo-2-((2-oxo-1-(piperidin-4-yl)-1,2-dihydropyridin-4-yl)amino)-7,8-dihydropyrido[2,3-d]pyrimidine-6-carbonitrile]
6 | 4 | 9.1 |  | 4440 | 4.3 | 1 | N#Cc1cc2cnc(Nc3ccc(N4CCC(O)CC4)c(F)c3)nc2n(C2CCCC2)c1=O [Compound No. 49, 8-cyclopentyl-2-((3-fluoro-4-(4-hydroxypiperidin-1-yl)phenyl)amino)-7-oxo-7,8-dihydropyrido[2,3-d]pyrimidine-6-carbonitrile]
7 | 19 | 4.5 |  | 428 | 490 | 2 | CC(C)N1CCc2cc(Nc3ncc4cc(C#N)c(=O)n(C5CCCC5)c4n3)ccc2C1 [Compound No. 45, 8-cyclopentyl-2-((2-isopropyl-1,2,3,4-tetrahydroisoquinolin-6-yl)amino)-7-oxo-7,8-dihydropyrido[2,3-d]pyrimidine-6-carbonitrile]
8 | 5 | 15 |  | 275 | 658 | 2.5 | CN1CCC(c2ccc(Nc3ncc4cc(C#N)c(=O)n(C5CCCC5)c4n3)cc2F)CC1 [Compound No. 46, 8-cyclopentyl-2-((3-fluoro-4-(1-methylpiperidin-4-yl)phenyl)amino)-7-oxo-7,8-dihydropyrido[2,3-d]pyrimidine-6-carbonitrile]
9 | 9 | 6.5 |  | 315 | 1230 | 5.2 | CN1CCc2ccc(Nc3ncc4cc(C#N)c(=O)n(C5CCCC5)c4n3)cc2C1 [Compound No. 34, 8-cyclopentyl-2-((2-methyl-1,2,3,4-tetrahydroisoquinolin-7-yl)amino)-7-oxo-7,8-dihydropyrido[2,3-d]pyrimidine-6-carbonitrile]
10 | 12 | 6.5 | 5180 | 1480 | 249 | 1 | N#Cc1cc2cnc(Nc3ccc(N4CCNCC4=O)c(F)c3)nc2n(C2CCCC2)c1=O [Compound No. 57, 8-cyclopentyl-2-((3-fluoro-4-(2-oxopiperazin-1-yl)phenyl)amino)-7-oxo-7,8-dihydropyrido[2,3-d]pyrimidine-6-carbonitrile]

The next lines start with the molecule.

Row | Structure (SMILES) | IC50 (CDK6) [nM] | IC50 (CDK4) [nM] | IC50 [1] [nM] | IC50 [2] [nM] | IC50 (PI3Kδ kinase) [nM] | IC50 (FMS kinase) [nM]
11 | CN1CCC(c2ccc(Nc3ncc4cc(C#N)c(=O)n(C5CCCC5)c4n3)cc2)CC1 [Compound No. 40, 8-cyclopentyl-2-((4-(1-methylpiperidin-4-yl)phenyl)amino)-7-oxo-7,8-dihydropyrido[2,3-d]pyrimidine-6-carbonitrile] | 76 | > 200 | 2800 | 133 | 416 | 1
12 | CN1CCN(c2ccc(Nc3ncc4cc(C#N)c(=O)n(Cc5ccccc5)c4n3)cc2)CC1 [Compound No. 32, 8-benzyl-2-((4-(4-methylpiperazin-1-yl)phenyl)amino)-7-oxo-7,8-dihydropyrido[2,3-d]pyrimidine-6-carbonitrile] | 7 | 1 |  | 2010 | 251 | 3.5
13 | CN(C)Cc1c[nH]c2cc(Nc3ncc4cc(C#N)c(=O)n(C5CCCC5)c4n3)ccc12 [Compound No. 21, 8-cyclopentyl-2-((3-((dimethylamino)methyl)-1H-indol-6-yl)amino)-7-oxo-7,8-dihydropyrido[2,3-d]pyrimidine-6-carbonitrile] | 2 | 11 |  | 238 | 1010 | 2.5
14 | CN(C)CC(=O)N1CCc2cc(Nc3ncc4cc(C#N)c(=O)n(C5CCCC5)c4n3)ccc2C1 [Compound No. 54, 8-cyclopentyl-2-((2-(dimethylglycyl)-1,2,3,4-tetrahydroisoquinolin-6-yl)amino)-7-oxo-7,8-dihydropyrido[2,3-d]pyrimidine-6-carbonitrile] | 3.5 | 3 | 1100 | 150 | 248 | 7
15 | CN(C)C1Cc2ccc(Nc3ncc4cc(C#N)c(=O)n(C5CCCC5)c4n3)cc2C1 (stereo not drawn) [Compound No. 47, 8-cyclopentyl-2-((2-(dimethylamino)-2,3-dihydro-1H-inden-5-yl)amino)-7-oxo-7,8-dihydropyrido[2,3-d]pyrimidine-6-carbonitrile] | 4 | 9.5 |  | 345 | 345 | 2.5
16 | CN(C)CC(=O)N1CCc2ccc(Nc3ncc4cc(C#N)c(=O)n(C5CCCC5)c4n3)cc2C1 [Compound No. 53, 8-cyclopentyl-2-((2-(dimethylglycyl)-1,2,3,4-tetrahydroisoquinolin-7-yl)amino)-7-oxo-7,8-dihydropyrido[2,3-d]pyrimidine-6-carbonitrile] | 4 | 2.5 | 1280 | 190 | 249 | 9.5
17 | N#Cc1cc2cnc(Nc3ccc(N4CCNCC4)cc3)nc2n(C2CCc3ccccc32)c1=O (stereo not drawn) [Compound No. 42, 8-(2,3-dihydro-1H-inden-1-yl)-7-oxo-2-((4-(piperazin-1-yl)phenyl)amino)-7,8-dihydropyrido[2,3-d]pyrimidine-6-carbonitrile] | 12 | 57 |  | 713 | 651 | 4
18 | CC(c1ccccc1)n1c(=O)c(C#N)cc2cnc(Nc3ccc(N4CCN(C)CC4)cc3)nc21 (stereo not drawn) [Compound No. 35, 2-((4-(4-methylpiperazin-1-yl)phenyl)amino)-7-oxo-8-(1-phenylethyl)-7,8-dihydropyrido[2,3-d]pyrimidine-6-carbonitrile] | 91 | > 200 |  | 3880 | 738 | 7
